Test results reported in patent US20230136218A1, “METHODS AND COMPOSITIONS FOR TREATING ACUTE MYELOID LEUKEMIA” (President and Fellows of Harvard College, priority 2019, published 2023).
“Also recorded” adds a separate entry of the source.

Legend:
Type in all cases: in vivo, mouse
[1] = test system: MLL-AF9 AML cells; assay: Colony forming unit assay of AML cells obtained from treated mice
Procedure: Recipient male mice (age 8-10 weeks) were injected intravenously (retro-orbital) with 1 million leukemia cells in a volume of 100 μl of saline. Disease progression was tracked intravitally using bioluminescence imaging. Mice were anaesthetized using isoflurane, injected with luciferin (150 μl of a 15 mg/ml solution in PBS), and imaged on an IVIS 200 Spectrum In Vivo Imaging System (PerkinElmer). When indicated, mice were treated with iCT (cytarabine, 100 mg/kg, once daily for 5 days and doxorubicin, 3 mg/kg, once daily for the first 3 days) or vehicle (saline) delivered via I.P. injection. To inhibit glutamine metabolism, mice were treated with DON (0.3 mg/kg, once daily) or vehicle (saline) delivered via I.P. injection. To inhibit GLS, mice were treated with a GLS inhibitor (150 mg/kg, twice daily) or vehicle (20% HP-β-cyclodextrin+20% Solutol, 50 mM citrate buffer, pH 3) delivered by oral gavage. To inhibit DHODH, mice were treated with BRQ (50 mg/kg, once daily) or vehicle (70% PBS, 30% poly(ethylene glycol)-400, pH 7.2) delivered via I.P. injection. To inhibit GCL, mice were treated with BSO (twice daily by I.P. injection at 2.23 mg/kg+in the drinking water at 4.45 mg/ml) or vehicle (saline by I.P. injection+untreated drinking water). […] FACS-sorted viable AML cells (GFP^+7-AAD^−) were resuspended in MethoCult GF M3434 (StemCell Technologies) at 1000 cells/ml and plated in SmartDish 6-well plates (StemCell Technologies) at 1 ml/well in duplicate. Cells were cultured in a humidified incubator at 37° C. in ambient air with 5% CO2. After 5 days colonies were counted.

[2] = test system: pyrimidine synthesis in HoxA9/Meis1 AML cells; assay: LC-MS-based quantification of glutamine metabolism and pyrimidine synthesis metabolites in HoxA9/Meis1 AML cells of treated mice; settings: mice treated with vehicle or BRQ 24 prior
Procedure: (§1) Recipient male mice (age 8-10 weeks) were injected intravenously (retro-orbital) with 1 million leukemia cells in a volume of 100 μl of saline. Disease progression was tracked intravitally using bioluminescence imaging. Mice were anaesthetized using isoflurane, injected with luciferin (150 μl of a 15 mg/ml solution in PBS), and imaged on an IVIS 200 Spectrum In Vivo Imaging System (PerkinElmer). When indicated, mice were treated with iCT (cytarabine, 100 mg/kg, once daily for 5 days and doxorubicin, 3 mg/kg, once daily for the first 3 days) or vehicle (saline) delivered via I.P. injection. To inhibit glutamine metabolism, mice were treated with DON (0.3 mg/kg, once daily) or vehicle (saline) delivered via I.P. injection. To inhibit GLS, mice were treated with a GLS inhibitor (150 mg/kg, twice daily) or vehicle (20% HP-β-cyclodextrin+20% Solutol, 50 mM citrate buffer, pH 3) delivered by oral gavage. To inhibit DHODH, mice were treated with BRQ (50 mg/kg, once daily) or vehicle (70% PBS, 30% poly(ethylene glycol)-400, pH 7.2) delivered via I.P. injection. […]
For untargeted metabolomics analysis, data were processed with Compound Discoverer 3.0 (ThermoFisher Scientific) using the mzCloud mass spectral library for compound annotation. […] For targeted metabolomics analysis, data were analyzed with Tracefinder4.1 (ThermoFisher Scientific).

[3] = test system: MLL-AF9 AML cells; assay: AML burden of MLL-AF9 AML-bearing mice by bioluminescence imaging or flow cytometry; settings: short term BRQ after iCT; four days after the last dose of iCT
Procedure: as §1, with “gavage.” for “gavage. To inhibit DHODH, mice were treated with BRQ (50 mg/kg, once daily) or vehicle (70% PBS, 30% poly(ethylene glycol)-400, pH 7.2) delivered via I.P. injection.”
Cells were suspended in flow buffer and stained for 30 minutes at 4° C. in the dark with antibodies against c-Kit, Sca-1, CD34, CD45, Ter-119, CD31, LepR, CD90, CD105, SLC1A3, SLC38A1 or a lineage cocktail (CD3, Gr-1, CD11b, B220, Ter-119). […] Cell viability was analyzed using Annexin V-APC (BioLegend) and propidium iodide (PI; ThermoFisher Scientific) with Annexin V^−PI^− cells considered as viable cells. The number of viable cells was determined by taking into account the total number of cells per well as measured using a Cellometer (Nexcelom). Mitochondrial membrane potential was measured by Tetramethylrhodamine, ethyl ester (TMRE; ThermoFisher) staining and levels of ROS were measured by CellROX Orange staining. Cells were incubated with 200 nM TMRE or 2.5 μM CellROX Orange in RPMI1640 medium supplemented with 10% FBS, 100 I.U./ml penicillin, 100 μg/ml streptomycin and 2 mM L-glutamine at 37° C. for 30 minutes, washed in flow buffer and analyzed. For all flow cytometry experiments, single color controls were used to set compensations and fluorescence minus one controls were used to set gates. […]

[4] = test system: HoxA9/Meis1 AML; assay: Kaplan-Meier survival of HoxA9/Meis1 AML-bearing mice; settings: BRQ 50 mg/kg I.P. following iCT, compared to iCT alone (FIG. 19E)
Excerpt: (§2) The MLL-AF9 and HoxA9/Meis1 leukemia models have been described previously (Sykes et al., 2016). Briefly, the MLL-AF9 model was established by crossing MLL-AF9 knockin mice (Corral et al., 1996) with mice expressing GFP under the control of the ubiquitin promoter as well as mice expressing luciferase under the control of the β-actin promoter. The retroviral transduction model of HoxA9/Meis1 leukemia was generated by the infection of bone marrow mononuclear cells with an MSCV-HoxA9-IRES-Meis1 construct (originally designed by Dr. Guy Sauvageau; Kroon et al., 1998). For both models, leukemic bone marrow cells from a terminally ill mouse were harvested and expanded ex vivo in RPMI1640 medium (Lonza) supplemented with 10% fetal bovine serum (FBS; Gibco), 100 I.U./ml penicillin, 100 μg/ml streptomycin, 2 mM L-glutamine (all from Corning), 20 ng/ml recombinant mouse SCF (rmSCF), 10 ng/ml recombinant mouse interleukin 3 (rmIL-3) and […] (all from R&D Systems).
Recipient male mice (age 8-10 weeks) were injected intravenously (retro-orbital) with 1 million leukemia cells in a volume of 100 μl of saline. Disease progression was tracked intravitally using bioluminescence imaging. Mice were anaesthetized using isoflurane, injected with luciferin (150 μl of a 15 mg/ml solution in PBS), and imaged on an IVIS 200 Spectrum In Vivo Imaging System (PerkinElmer). […]

[5] = test system: MLL-AF9 AML cells; assay: Flow cytometric quantification of CD34 and cKit levels in AML cells obtained from treated mice
Procedure: (§3) Recipient male mice (age 8-10 weeks) were injected intravenously (retro-orbital) with 1 million leukemia cells in a volume of 100 μl of saline. Disease progression was tracked intravitally using bioluminescence imaging. Mice were anaesthetized using isoflurane, injected with luciferin (150 μl of a 15 mg/ml solution in PBS), and imaged on an IVIS 200 Spectrum In Vivo Imaging System (PerkinElmer). When indicated, mice were treated with iCT (cytarabine, 100 mg/kg, once daily for 5 days and doxorubicin, 3 mg/kg, once daily for the first 3 days) or vehicle (saline) delivered via I.P. injection. To inhibit glutamine metabolism, mice were treated with DON (0.3 mg/kg, once daily) or vehicle (saline) delivered via I.P. injection. To inhibit GLS, mice were treated with a GLS inhibitor (150 mg/kg, twice daily) or vehicle (20% HP-β-cyclodextrin+20% Solutol, 50 mM citrate buffer, pH 3) delivered by oral gavage. To inhibit DHODH, mice were treated with BRQ (50 mg/kg, once daily) or vehicle (70% PBS, 30% poly(ethylene glycol)-400, pH 7.2) delivered via I.P. injection. To inhibit GCL, mice were treated with BSO (twice daily by I.P. injection at 2.23 mg/kg+in the drinking water at 4.45 mg/ml) or vehicle (saline by I.P. injection+untreated drinking water).
Cells were suspended in flow buffer and stained for 30 minutes at 4° C. in the dark with antibodies against c-Kit, Sca-1, CD34, CD45, Ter-119, CD31, LepR, CD90, CD105, SLC1A3, SLC38A1 or a lineage cocktail (CD3, Gr-1, CD11b, B220, Ter-119). 7-AAD was included as a viability dye to help identify dead cells. When necessary, cells were stained with a secondary antibody (Alexa Fluor 546-conjugated anti-rabbit IgG) or APC-eFluor 780-conjugated streptavidin (eBioscience) for 15 minutes at 4° C. in the dark. […] Cell viability was analyzed using Annexin V-APC (BioLegend) and propidium iodide (PI; ThermoFisher Scientific) with Annexin V^−PI^− cells considered as viable cells. The number of viable cells was determined by taking into account the total number of cells per well as measured using a Cellometer (Nexcelom). Mitochondrial membrane potential was measured by Tetramethylrhodamine, ethyl ester (TMRE; ThermoFisher) staining and levels of ROS were measured by CellROX Orange staining. Cells were incubated with 200 nM TMRE or 2.5 μM CellROX Orange in RPMI1640 medium supplemented with 10% FBS, 100 I.U./ml penicillin, 100 μg/ml streptomycin and 2 mM L-glutamine at 37° C. for 30 minutes, washed in flow buffer and analyzed. For all flow cytometry experiments, single color controls were used to set compensations and fluorescence minus one controls were used to set gates. All flow cytometry data was collected on a BD LSR II flow cytometer and analyzed using FlowJo software.

[6] = test system: MLL-AF9 AML; assay: Kaplan-Meier survival of MLL-AF9 AML-bearing mice; settings: two doses of BRQ 50 mg/kg I.P. following iCT, compared to iCT alone
Excerpt: as §2, §3

[7] = agent alone, compared to vehicle-treated mice

For `Cc1c(-c2ccc(-c3ccccc3F)cc2)nc2ccc(F)cc2c1C(=O)O` [BRQ, brequinar], the “number of colony-forming units (CFUs)” value [1, 7] was “strongly reduced”, the “number of colony-forming units (CFUs)” value ([1]; combination with iCT (sequential), four days after the last dose of iCT) was “further reduced” and the “pyrimidine synthesis (metabolite levels)” value [2] was “effectively inhibits pyrimidine synthesis”. The “elimination of AML cells from the bone marrow” value [3] was “improved elimination of AML cells from the bone marrow”, the survival [4] was “significantly extend survival” and the “percentage of CD34+cKit+ cells” value [5, 7] was “strongly reduced”. The “percentage of CD34-cKit+ cells” value ([5]; combination with iCT, compared to BRQ alone) was “further reduced”, the survival [6] was “significantly extend survival; also recorded: extended survival” and the survival ([6]; listed as brequinar) was “remarkably extend animal survival”.
